Results taken from PMC7894523 (Chemistry (Weinheim an Der Bergstrasse, Germany), 2020).

Molecular target: T1, 15N-labeled carbohydrate recognition domain (CRD) of DC-SIGN (Homo sapiens, UniProt Q9NNX6)
T1 sequence (Q9NNX6 250-404 limits assumed): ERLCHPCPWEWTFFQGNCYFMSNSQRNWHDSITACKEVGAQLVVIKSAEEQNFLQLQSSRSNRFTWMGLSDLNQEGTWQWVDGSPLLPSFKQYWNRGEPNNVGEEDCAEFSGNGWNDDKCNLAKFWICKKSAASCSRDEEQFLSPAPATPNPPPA
Assay: 1H-15N HSQC titration, chemical shift perturbation
Type: binding

- Kd: 1500 ± 400 µM
SMILES: CC(=O)N[C@H]1[C@H](O[C@H]2[C@H](O[C@@H]3O[C@@H](C)[C@@H](O)[C@@H](O)[C@@H]3O)[C@@H](NC(C)=O)[C@H](OCCCCCN)O[C@@H]2CO)O[C@H](CO)[C@H](O)[C@@H]1O [compound 12, LDN-F]
